From patent US7244431B2, “Allergy vaccines and their preparation” (priority 2000, dated 2007)

Tests used:
[1] = system: birch pollen allergic patients; experiment: Skin prick testing of allergic patients; format: in vivo, human; conditions: 100 μg/ml
Procedure: SPTs were performed on the individuals forearms as described ([…]. et al. (1997) J. Clin Invest. 99, 1673-168; Dreborg S: (1989) J. Am. Acad. DerMatol. 21, 820-821). […] In addition standardized skin prick solutions (birch pollen extract and histamine) (Allergopharma, Reinbek, Germany) were tested. Reactions were recorded 20 minutes after SPT by photography and by transferring the ballpoint pen-surrounded wheal area with a scotch tape to paper.

[2] = system: IgE antibodies in sera from birch pollen allergic patients; experiment: ELISA detection of peptide- and rBet v 1-specific IgE antibodies; format: binding, human
Outline: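 Sera from 60 birch pollen allergic patients (rhinoconjunctivitis and/or asthma; skin prick and CAP RAST characterized) plus one non-atopic individual, diluted 1:3, incubated overnight at 4 °C on coated plates. Bound IgE detected with 1:1000 alkaline-phosphatase-coupled mouse anti-human IgE.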

## LFPKVAPQAISSVENIEGNGGPGTIKKISFC [Peptide P2, Bet v 1-derived synthetic peptide, position aa 30-59, one cysteine added]
[1]; individual 1
  mean wheal diameter: 0 mm
[1]; individual 2
  mean wheal diameter: 0 mm
[1]; individual 3
  mean wheal diameter: 0 mm
[1]; individual 4
  mean wheal diameter: 0 mm
[1]; individual 5
  mean wheal diameter: 0 mm
[1]; individual 6 (allergic, without birch pollen allergy)
  mean wheal diameter: 0 mm
[2]; serum of NHS, non-allergic control individual
  IgE (OD): — (Dashes indicate reactivities below the cut-off level (OD=0.050))
[2]; serum of patient 1
  IgE (OD): — (Dashes indicate reactivities below the cut-off level (OD=0.050))
[2]; serum of patient 2
  IgE (OD): — (Dashes indicate reactivities below the cut-off level (OD=0.050))
[2]; serum of patient 3
  IgE (OD): — (Dashes indicate reactivities below the cut-off level (OD=0.050))
[2]; serum of patient 4
  IgE (OD): — (Dashes indicate reactivities below the cut-off level (OD=0.050))
[2]; serum of patient 5
  IgE (OD): — (Dashes indicate reactivities below the cut-off level (OD=0.050))
[2]; serum of patient 6
  IgE (OD): — (Dashes indicate reactivities below the cut-off level (OD=0.050))
[2]; serum of patient 7
  IgE (OD): — (Dashes indicate reactivities below the cut-off level (OD=0.050))
[2]; serum of patient 8
  IgE (OD): — (Dashes indicate reactivities below the cut-off level (OD=0.050))
[2]; serum of patient 9
  IgE (OD): — (Dashes indicate reactivities below the cut-off level (OD=0.050))
[2]; serum of patient 10
  IgE (OD): — (Dashes indicate reactivities below the cut-off level (OD=0.050))
[2]; serum of patient 11
  IgE (OD): — (Dashes indicate reactivities below the cut-off level (OD=0.050))
[2]; serum of patient 12
  IgE (OD): — (Dashes indicate reactivities below the cut-off level (OD=0.050))
[2]; serum of patient 13
  IgE (OD): — (Dashes indicate reactivities below the cut-off level (OD=0.050))
[2]; serum of patient 14
  IgE (OD): — (Dashes indicate reactivities below the cut-off level (OD=0.050))
[2]; serum of patient 15
  IgE (OD): — (Dashes indicate reactivities below the cut-off level (OD=0.050))
[2]; serum of patient 16
  IgE (OD): — (Dashes indicate reactivities below the cut-off level (OD=0.050))
[2]; serum of patient 17
  IgE (OD): — (Dashes indicate reactivities below the cut-off level (OD=0.050))
[2]; serum of patient 18
  IgE (OD): — (Dashes indicate reactivities below the cut-off level (OD=0.050))
[2]; serum of patient 19
  IgE (OD): — (Dashes indicate reactivities below the cut-off level (OD=0.050))
[2]; serum of patient 20
  IgE (OD): — (Dashes indicate reactivities below the cut-off level (OD=0.050))
[2]; serum of patient 21
  IgE (OD): — (Dashes indicate reactivities below the cut-off level (OD=0.050))
[2]; serum of patient 22
  IgE (OD): — (Dashes indicate reactivities below the cut-off level (OD=0.050))
[2]; serum of patient 23
  IgE (OD): — (Dashes indicate reactivities below the cut-off level (OD=0.050))
[2]; serum of patient 24
  IgE (OD): — (Dashes indicate reactivities below the cut-off level (OD=0.050))
[2]; serum of patient 25
  IgE (OD): — (Dashes indicate reactivities below the cut-off level (OD=0.050))
[2]; serum of patient 26
  IgE (OD): — (Dashes indicate reactivities below the cut-off level (OD=0.050))
[2]; serum of patient 27
  IgE (OD): — (Dashes indicate reactivities below the cut-off level (OD=0.050))
[2]; serum of patient 28
  IgE (OD): — (Dashes indicate reactivities below the cut-off level (OD=0.050))
[2]; serum of patient 29
  IgE (OD): — (Dashes indicate reactivities below the cut-off level (OD=0.050))
[2]; serum of patient 30
  IgE (OD): — (Dashes indicate reactivities below the cut-off level (OD=0.050))
[2]; serum of patient 31
  IgE (OD): — (Dashes indicate reactivities below the cut-off level (OD=0.050))
[2]; serum of patient 32
  IgE (OD): — (Dashes indicate reactivities below the cut-off level (OD=0.050))
[2]; serum of patient 33
  IgE (OD): — (Dashes indicate reactivities below the cut-off level (OD=0.050))
[2]; serum of patient 34
  IgE (OD): — (Dashes indicate reactivities below the cut-off level (OD=0.050))
[2]; serum of patient 35
  IgE (OD): — (Dashes indicate reactivities below the cut-off level (OD=0.050))
[2]; serum of patient 36
  IgE (OD): — (Dashes indicate reactivities below the cut-off level (OD=0.050))
[2]; serum of patient 37
  IgE (OD): — (Dashes indicate reactivities below the cut-off level (OD=0.050))
[2]; serum of patient 38
  IgE (OD): — (Dashes indicate reactivities below the cut-off level (OD=0.050))
[2]; serum of patient 39
  IgE (OD): — (Dashes indicate reactivities below the cut-off level (OD=0.050))
[2]; serum of patient 40
  IgE (OD): — (Dashes indicate reactivities below the cut-off level (OD=0.050))
[2]; serum of patient 41
  IgE (OD): — (Dashes indicate reactivities below the cut-off level (OD=0.050))
[2]; serum of patient 42
  IgE (OD): — (Dashes indicate reactivities below the cut-off level (OD=0.050))
[2]; serum of patient 43
  IgE (OD): — (Dashes indicate reactivities below the cut-off level (OD=0.050))
[2]; serum of patient 44
  IgE (OD): — (Dashes indicate reactivities below the cut-off level (OD=0.050))
[2]; serum of patient 45
  IgE (OD): — (Dashes indicate reactivities below the cut-off level (OD=0.050))
[2]; serum of patient 46
  IgE (OD): — (Dashes indicate reactivities below the cut-off level (OD=0.050))
[2]; serum of patient 47
  IgE (OD): — (Dashes indicate reactivities below the cut-off level (OD=0.050))
[2]; serum of patient 48
  IgE (OD): — (Dashes indicate reactivities below the cut-off level (OD=0.050))
[2]; serum of patient 49
  IgE (OD): — (Dashes indicate reactivities below the cut-off level (OD=0.050))
[2]; serum of patient 50
  IgE (OD): — (Dashes indicate reactivities below the cut-off level (OD=0.050))
[2]; serum of patient 51
  IgE (OD): — (Dashes indicate reactivities below the cut-off level (OD=0.050))
[2]; serum of patient 52
  IgE (OD): — (Dashes indicate reactivities below the cut-off level (OD=0.050))
[2]; serum of patient 53
  IgE (OD): — (Dashes indicate reactivities below the cut-off level (OD=0.050))
[2]; serum of patient 54
  IgE (OD): — (Dashes indicate reactivities below the cut-off level (OD=0.050))
[2]; serum of patient 55
  IgE (OD): — (Dashes indicate reactivities below the cut-off level (OD=0.050))
[2]; serum of patient 56
  IgE (OD): — (Dashes indicate reactivities below the cut-off level (OD=0.050))
[2]; serum of patient 57
  IgE (OD): — (Dashes indicate reactivities below the cut-off level (OD=0.050))
[2]; serum of patient 58
  IgE (OD): — (Dashes indicate reactivities below the cut-off level (OD=0.050))
[2]; serum of patient 59
  IgE (OD): — (Dashes indicate reactivities below the cut-off level (OD=0.050))
[2]; serum of patient 60
  IgE (OD): — (Dashes indicate reactivities below the cut-off level (OD=0.050))
